Key:
[1] = test system: human lung cancer NCI-H460 cell; assay: MTT proliferation assay, NCI-H460; format: cell-based; conditions: NCI-H460, 96 h, MTT, 4 days, read-out: IC50 (nM), proliferation of NCI-H460 cell
Experimental: The cells were digested by trypsinase and centrifuged at 800 rpm for 5 minutes, the supernatant was discarded, and the residual was resuspended with fresh medium […]) and counted.
(§1) The cells were seeded into 96-well cell culture plate with a density of 2000/4000 cells per well and incubated overnight in a 5% CO2 incubator at 37° C. […] 5 μL diluent of each concentration was added to 120 μL of medium (25 times diluted) and mixed by shaking. The overnight cell plates were taken and the culture medium was removed, 195 μL of fresh medium was added to each well, and 5 μL of diluted medium containing the corresponding concentration of the test compound was added respectively (the final concentration of DMSO is 1%), and the culture plate was then placed in a 5% CO2 incubator at 37° C. for 4 days. After removing the original solution, 100 μL of fresh serum-free DMEM medium containing MTT (0.5 mg/mL) was added to each well, the culture was continued. […] Cell viability (%)=(ODcompound−ODbackground)/(ODDMSO−ODbackground)×100. GraphPad Prism 6.0 was used to analyze the data. The inhibitory activity of compounds on cell proliferation was plotted based on cell viability and the logarithm of compound concentration. The IC50 value was fitted by a sigmoidal dose response curve equation Y−100/(1+10^(LogC−LogIC50)), wherein C was the concentration of compound.

[2] = test system: human colon cancer LoVo cell; assay: MTT proliferation assay, LoVo; format: cell-based; conditions: Homo sapiens, LoVo, 96 h, MTT, 4 days; read-out: IC50 (nM), proliferation of LoVo cell
Experimental: as §1, with “[…]” for “100 μL”, “viability (%)=(ODcompound−ODbackground)/ODDMSO−ODbackground)×100.” for “viability (%)=(ODcompound−ODbackground)/(ODDMSO−ODbackground)×100.”, “The IC5.0” for “The IC50”, “equation Y=100/(1+10^(LogC-LogIC50)),” for “equation Y−100/(1+10^(LogC−LogIC50)),”

[3] = Pharmacokinetics following single oral administration to mice; format: in vivo; conditions: mouse, CD-1 (ICR) mice, gavage 10 mg/kg, 0.5% methylcellulose/water suspension, plasma
Experimental: The compound of the present invention was formulated into a 0.5% methylcellulose/water uniform suspension, and was administered to CD-1 (ICR) mice by gavage at 10 mg/kg. Plasma samples were collected at 8 time points of 0.250, 0.500, 1.00, 2.00, 4.00, 6.00, 8.00 and 24.0 hours post-dose. Concentrations of the compound were determined by LC-MS/MS method.

[4] = test system: human non-small cell lung cancer A549 cell; assay: MTT proliferation assay of Example 1, A549; format: cell-based; conditions: A549, 96 h, 4 days
Experimental: (§2) The cells were digested by trypsinase and centrifuged at 800 rpm for 5 minutes, the supernatant was discarded, and the residual was resuspended with fresh medium (1640 medium+10% FRS) and counted. The cells were seeded into 96well cell culture plate with a density of 2000/4000 cells per well and incubated overnight in a 5% CO2 incubator at 37° C. The stock solutions of the test substances were serially diluted to 8 concentrations by DMSO at the ratios of 1:3 and 1:10, respectively. 5 μL diluent of each concentration was added to […] (25 times diluted) and mixed by shaking. The overnight cell plates were taken and the culture medium was removed, 195 μL of fresh medium was added to each well, and 5 μL of diluted medium containing the corresponding concentration of the test compound was added respectively (the final concentration of DMSO is 1%), and the culture plate was then placed in a 5% CO2 incubator at 37° C for 4 days. After removing the original solution, […] of fresh serum-free DMEM medium containing MTT (0.5 mg/mL) was added to each well, the culture was continued. After 4 hours, the original solution was removed, 100 μL, of DMSO was added to each well, the 96-well plates were shaken for 10 minutes in the dark and placed in a multi-function reader to read the absorbance at the wavelength of 552/690 nm. […]

[5] = test system: HCT116 (human colorectal adenocarcinoma cell); assay: MTT proliferation assay of Example 1, HCT116; format: cell-based; conditions: HCT-116, 96 h, 4 days
Experimental: as §2

[6] = test system: human ovarian cancer OVCAR-3 cell; assay: MTT proliferation assay of Example 1, OVCAR-3; format: cell-based; conditions: OVCAR-3, 96 h, 4 days
Experimental: as §2

[7] = test system: human large cell lung cancer NCI-H460 cell; assay: MTT proliferation assay of Example 1, NCI-H460; format: cell-based; conditions: NCI-H460, 96 h, 4 days
Experimental: as §2

## Cc1nc(-c2ccn[nH]2)n2nc(N3CCOC[C@H]3C)cc(-c3ccnn3C)c12 [Example 1, (R)-3-methyl-4-(5-methyl-4-(1-methyl-1H-pyrazol-5-yl)-7-(1H-pyrazol-5-yl)imidazo[1,5-b]pyridazin-2-yl)morpholine]
[1]
  IC50: 16.5 nM
[2]
  IC50: 26.7 nM
[3]
  AUC(0-inf): 98500 ng·h/mL
  AUC(0-t): 98500 ng·h/mL
  Cmax: 9340 ng/mL
  half-life: 1.64 h
[4]
  IC50: 157 nM
[5]
  IC50: 22.5 nM
[6]
  IC50: 182 nM
[7]
  IC50: 19 nM
